This note sets out measurements from patent US20260200897A1, “4-((5-(3-(4-(PYRIDIN-2-YL)CYCLOPENTYL)-1H-PYRAZOL-3-YL)AMINO)-BENZENESULFONAMIDE DERIVATIVES AND SIMILAR COMPOUNDS AS CDK INHIBITORS FOR THE TREATMENT OF CANCER” (BeOne Medicines I GmbH, priority 2023, published 2026).

Each structure is given as a SMILES string.

Assay [1] deals with CDK2/Cyclin E1 (Homo sapiens, UniProt P24941). As to the kind of experiment: CDK2/Cyclin E1 TR-FRET biochemical assay, 0.060 mM ATP. Conditions: 0.15 μM Rb (Ser780)-biotin substrate, 120 min reaction, Table 1. (In TR-FRET formats the signal depends on donor and acceptor labels being close together.)
The target of assay [2] is CDK1/Cyclin B1 (Homo sapiens, UniProt P06493). In words: CDK1/Cyclin B1 TR-FRET biochemical assay, 0.015 mM ATP. Conditions: 0.15 μM Rb (Ser780)-biotin substrate, 120 min reaction, Table 1.
Sequence of CDK1/Cyclin B1 (P06493 whole entry): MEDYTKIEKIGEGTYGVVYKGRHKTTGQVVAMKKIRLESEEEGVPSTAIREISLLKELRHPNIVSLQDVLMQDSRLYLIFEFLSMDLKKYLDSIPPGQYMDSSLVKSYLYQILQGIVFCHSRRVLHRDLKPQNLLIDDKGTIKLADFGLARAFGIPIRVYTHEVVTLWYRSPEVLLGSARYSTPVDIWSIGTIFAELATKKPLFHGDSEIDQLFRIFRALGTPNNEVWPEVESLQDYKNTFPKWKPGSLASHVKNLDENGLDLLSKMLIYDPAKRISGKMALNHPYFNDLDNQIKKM
Sequence of CDK1/Cyclin B1 (P14635 whole entry partner): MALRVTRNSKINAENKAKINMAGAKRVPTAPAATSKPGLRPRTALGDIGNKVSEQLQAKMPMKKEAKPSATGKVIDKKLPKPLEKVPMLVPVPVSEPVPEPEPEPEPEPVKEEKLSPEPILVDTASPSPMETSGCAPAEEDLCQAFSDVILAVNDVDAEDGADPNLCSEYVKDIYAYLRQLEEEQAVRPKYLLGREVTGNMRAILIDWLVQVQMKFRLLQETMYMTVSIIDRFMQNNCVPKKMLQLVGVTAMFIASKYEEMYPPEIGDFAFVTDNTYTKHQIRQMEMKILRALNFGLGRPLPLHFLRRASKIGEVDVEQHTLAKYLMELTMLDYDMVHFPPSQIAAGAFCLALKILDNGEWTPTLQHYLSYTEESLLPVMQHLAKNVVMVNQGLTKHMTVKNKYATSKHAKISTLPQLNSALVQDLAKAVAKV

As to `O=c1ccon1[C@H]1CC[C@@H](c2cc(Nc3ccc4c(c3F)CNS4(=O)=O)n[nH]2)C1` (relative stereo) [Example 49, cis-2-(3-(3-((4-fluoro-1,1-dioxido-2,3-dihydrobenzo[d]isothiazol-5-yl)amino)-1H-pyrazol-5-yl)cyclopentyl)isoxazol-3 (2H)-one], the values for the IC50 in assay [1] and in assay [2] were 478 nM and 2560 nM, respectively.
For `CC(C)N1CCN([C@H]2CC[C@@H](c3cc(Nc4ccc5c(c4F)CNS5(=O)=O)n[nH]3)C2)C1=O` (relative stereo) [Example 81, cis-1-(3-(3-((4-fluoro-1,1-dioxido-2,3-dihydrobenzo[d]isothiazol-5-yl)amino)-1H-pyrazol-5-yl)cyclopentyl)-3-isopropylimidazolidin-2-one], the half-inhibitory concentration (IC50) (in general, the point on the concentration scale where inhibition reaches its midpoint) was 1190 nM in assay [1] and above 10000 nM in assay [2].
`CC(C)(C)c1cnc([C@@H]2CC[C@H](c3cc(Nc4ccc5c(c4)CS(=O)(=O)N5)n[nH]3)C2)o1` (relative stereo) [Example 135, cis-5-((5-(3-(5-(tert-butyl)oxazol-2-yl)cyclopentyl)-1H-pyrazol-3-yl)amino)-1,3-dihydrobenzo[c]isothiazole 2,2-dioxide]: the IC50 in assay [1] came out at 4.6 nM; in assay [2] it was 11 nM.
In the case of `Cn1cc(O[C@@H]2CC[C@H](c3cc(Nc4ccc5c(c4F)CNS5(=O)=O)n[nH]3)C2)cn1` (relative stereo) [Example 77, cis-4-fluoro-5-((5-(3-((1-methyl-1H-pyrazol-4-yl)oxy)cyclopentyl)-1H-pyrazol-3-yl)amino)-2,3-dihydrobenzo[d]isothiazole 1,1-dioxide], the figures for the half-inhibitory concentration (IC50) in assay [1] and in assay [2] were 530 nM and above 10000 nM, respectively.
